Laboratory results reported in US20260234660A1, “TREATMENT OF MUSCLE RELATED DISORDERS WITH ANTI-HUMAN CACNG1 ANTIBODIES” (Regeneron Pharmaceuticals, Inc., priority 2023, published 2026).
Where a name gives a salt, the structure may show the parent alone.

System: human myotubes
Assay: Acetylcholine-induced calcium flux assay in human myotubes (FLIPR)
Type: cell-based
Settings: 20 μM nicardipine, positive control for calcium blocking
Description: CACNG1 is the γ1 subunit of the skeletal muscle specific L-type calcium channel, (dihydropyridine receptor), though genetic deletion of CACNG1 appears to have no major impact on skeletal muscle function. To determine whether antibodies that bind CACNG1 impact muscle function, a calcium flux assay was performed on human myotubes that were incubated with CACNG1 antibodies to determine whether these antibodies affect acetylcholine-induced calcium release.
Human skeletal myoblasts (Cook Myosite, Inc.) were plated at 10,000 cells/well of a 96-well plate and were differentiated for 7 days into myotubes. On the final day of differentiation, media was replaced with 50 μL of FLIPR calcium 5 dye with probenecid (Invitrogen) and 50 uL of assay buffer (0.1% BSA-DMEM) per well. CACNG1 and isotype control antibodies were serial diluted in assay buffer and added to the cells and incubated at 37° C. in a 5% CO2 incubator for 1 hour prior to the calcium flux assay. Nicardipine hydrochloride (Sigma) was added to untreated wells to serve as a control for calcium channel blockade. After 1 hour, acetylcholine (Sigma) was added at a 20 uM final concentration to induce myotube calcium release, and plates were assayed on a FLIPR Tetra (Molecular Devices, LLC).

COC(=O)C1=C(C)NC(C)=C(C(=O)OCCN(C)Cc2ccccc2)C1c1cccc([N+](=O)[O-])c1 (stereo not shown) [nicardipine, Nicardipine hydrochloride, reference compound]
effect on human myotube calcium release: substantially reduced human myotube calcium release
